In patent US5068244A, “Benzocyclohexanes and analgesic compositions thereof” (Roussel Uclaf, priority 1988, dated 1991):

The compounds below were run against T1, opiate receptor K (Cavia porcellus, UniProt P41144) (assay: Binding of the opiate receptor K in vitro (displacement of 3H ethylketocyclazocine)). Conditions: guinea pig cerebellum membranes, 3H ethylketocyclazocine 1 nM, Tris pH 7.7, 25° C., 40 minutes; read-out: CI50 (the source's name).
T1 construct: Membranous sediment preserved at -30° C; and prepared from guinea pig cerbelli were used; from tissue; host or cells: guinea pig cerebellum membranes
T1 sequence (P41144 whole entry): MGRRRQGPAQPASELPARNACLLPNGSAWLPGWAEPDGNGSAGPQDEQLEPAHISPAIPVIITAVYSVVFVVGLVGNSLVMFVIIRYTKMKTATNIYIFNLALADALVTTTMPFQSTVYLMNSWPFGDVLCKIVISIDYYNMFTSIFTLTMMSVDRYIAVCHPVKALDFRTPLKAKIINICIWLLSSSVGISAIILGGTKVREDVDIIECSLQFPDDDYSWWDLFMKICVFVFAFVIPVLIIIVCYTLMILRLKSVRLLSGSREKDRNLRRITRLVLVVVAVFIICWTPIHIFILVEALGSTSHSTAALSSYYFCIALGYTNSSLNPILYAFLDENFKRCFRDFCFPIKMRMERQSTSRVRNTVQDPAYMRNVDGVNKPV
Description: Membranous sediment preserved at -30° C. (possibly for 30 days) and prepared from guinea pig cerbelli were used. The sediments were put in suspension in the buffer Tris pH 7.7. Fractions of 2 ml were distributed in hemolysis tubes and ^3 H ethylketocyclazocine 1 nM and the product to be studied were added. The following were determined: the maximum quantity of fixed radioactivity in the presence of ^3 H ethylketocyclazocine alone, the quantity of radioactivity bonded in a non-specific manner in the presence of the tritiated ligand and of an excess (10^-5 M) of the reference product known under the name of U-50488 H and the displacement of specific bonding produced by a dose of 5×10^-5 M of the product to be tested.
These tests were carried out in triplicate and aliquotes of 2 ml were incubated at 25° C. for 40 minutes. After returning to 0° C. for 5 minutes at the end of the incubation, they were filtered with Whatman GF/C filters, rinsed in Tris buffer pH 7.7 and the radioactivity was counted in the presence of scintillating Triton. When the product to be tested displaced the specifically fixed radioactivity by more than 50%, the 50% inhibiting concentration (CI50) was determined by a 7 dose scale. The results of the 50% inhibiting concentration were then expressed in nM. The CI50 was therefore the concentration of the product studied, expressed in nM, necessary to displace 50% of the specifically fixed radioactivity on the receptor studied (LAHTI et al, 1982, Life Sci., Vol. 31, 2257) The results are as follows: […]
In the case of `CN(C(=O)Cc1ccc([N+](=O)[O-])cc1)[C@H]1c2ccccc2CC[C@@H]1N1CCCC1` (relative stereo) [Example 2, Trans (±) N-methyl-4-nitro-N-[2-(1-pyrrolidinyl)-1,2,3,4-tetrahydro-1-naphthyl]-benzene acetamide], the IC50 is reported as 12 nM.
In the case of `CN(C(=O)Cc1cccc2ccccc12)[C@H]1c2ccccc2CC[C@@H]1N1CCCC1` (relative stereo) [Example 3, Trans (±) N-methyl-N-[2-(1-pyrrolidinyl)-1,2,3,4-tetrahydro-1-naphthyl]-1-naphthalene acetamide], the IC50 is reported as 11 nM.
In the case of `CN(C(=O)Cc1cccc2sccc12)[C@H]1c2ccccc2CC[C@@H]1N1CCCC1` (relative stereo) [Example 20, Trans (±) N-methyl-N-[2-(1-pyrrolidinyl)-1,2,3,4-tetrahydro-1-naphthyl]-4-benzo-[b]-thiophene acetamide], the IC50 is reported as 3.3 nM.
